Assay results as given in patent US20050130252A1, “Stabilized susceptibility tests of aerobic pathogens” (Wyeth Holdings Corporation, priority 2003, published 2005).

Tests used:
Format in all cases: cell-based
[1] = test system: H. influenzae ATCC 49247; assay: Broth microdilution MIC
Procedure: The process for preparing susceptibility test medium are the following steps: • a. Preparing Mueller Hinton Broth II medium by adding 22 grams powdered media to 1.0 liter distilled water; • b. Autoclaving (121° C., 15 psi, 15 minutes) and cooling the medium; • c. Adding Oxyrase® up to about 10% final volume and keeping at 35-37° C. in an incubator for 30 minutes; • d. Adding about 50 μL to each well of a 96 well microtiter plate; • e. Weighing drug and adding broth to drug to bring up to about (standard 128 μg/ml); • f. Adding 50 μL of the drug to the first column of the titer plate; • g. Diluting by two-fold serial diluting across or down the plate. • h. Preparing a Prompt™ inoculum at 10^8 CFU/ml; • i. Diluting inoculum 1:100 in the broth at […] in 9.9 ml (1:100) is 10^6 colony forming units (CFU) forming the adjusted inoculum; • j. Adding 50 μL of the adjusted inoculum to the wells of the microtiter plate; • k. Incubating the plates at 35-37° C. for 18-22 hours; and • l. Reading, with the unaided eye, the MIC.
The in vitro activities of tigecycline and control antibiotics were determined by the broth microdilution method as recommended by the NCCLS. (National Committee for Clinical Laboratory Standards, 2003. Methods for Dilution Antimicrobial Susceptibility Tests for Bacteria That Grow Aerobically; Approved Standards: M7-A6, Sixth ed, vol. 23., National Committee for Clinical Laboratory Standards Wayne, Pa.) was used for the standard procedures. […] Oxyrase® (Oxyrase Inc, Mansfield, Ohio) was used according to the manufacturer's instructions by adding 1 ml of Oxyrase® to 50 ml of media. Media age studies were performed by preparing MHB in multiple flasks, then storing the media under various conditions. MICs were usually performed in duplicate on each day of testing. Storage under anaerobic conditions was conducted in an anaerobic chamber (MACS MG 1000, Don Whitley Scientific LTD). The pH of the media was determined by pH meter (Corning 430). A comparison of the in vitro activity of tigecycline by agar and broth dilution methodolgies with and without Oxyrase® against clinical isolates is shown in Table 1.

[2] = test system: Staphylococcus aureus GC4536 Smith MP -In Vivo; assay: Agar dilution in vitro activity; conditions: S. aureus GC4536 Smith
Procedure: (§1) The in vitro activities of tigecycline and control antibiotics were determined by the broth microdilution method as recommended by the NCCLS. (National Committee for Clinical Laboratory Standards, 2003. Methods for Dilution Antimicrobial Susceptibility Tests for Bacteria That Grow Aerobically; Approved Standards: M7-A6, Sixth ed, vol. 23., National Committee for Clinical Laboratory Standards Wayne, Pa.) was used for the standard procedures. MBH with 5% lysed horse blood was used for testing S. pneumoniae and Haemophilus Test Medium was used for testing H. influenzae. […] Media age studies were performed by preparing MHB in multiple flasks, then storing the media under various conditions. MICs were usually performed in duplicate on each day of testing. Storage under anaerobic conditions was conducted in an anaerobic chamber (MACS MG 1000, Don Whitley Scientific LTD). The pH of the media was determined by pH meter (Corning 430). A comparison of the in vitro activity of tigecycline by agar and broth dilution methodolgies with and without Oxyrase® against clinical isolates is shown in Table 1.

[3] = test system: Candida albicans GC3066 ATCC Control; assay: Agar dilution in vitro activity; conditions: C. albicans GC3066 ATCC Control
Procedure: as §1

[4] = test system: Enterococcus faecalis GC4555 ATCC Control; assay: Agar dilution in vitro activity; conditions: E. faecalis GC4555 ATCC Control
Procedure: as §1

[5] = test system: Staphylococcus aureus GC1131 Clinical isolate; assay: Agar dilution in vitro activity; conditions: S. aureus GC1131
Procedure: as §1

[6] = test system: Escherichia coli GC4559 parent GC4560; assay: Agar dilution in vitro activity; conditions: E. coli GC4559
Procedure: as §1

[7] = test system: Escherichia coli GC1073 tet(B) wt; assay: Agar dilution in vitro activity; conditions: E. coli GC1073 tet(B) wt
Procedure: as §1

[8] = test system: Staphylococcus aureus GC6466 Clinical - tet(M); assay: Agar dilution in vitro activity; conditions: S. aureus GC6466 tet(M)
Procedure: as §1

[9] = test system: Escherichia coli GC4560 IMP mutant; assay: Agar dilution in vitro activity; conditions: E. coli GC4560 IMP mutant
Procedure: as §1

[10] = test system: Escherichia coli GC2203 ATCC Control; assay: Agar dilution in vitro activity; conditions: E. coli GC2203 ATCC Control
Procedure: as §1

[11] = test system: Staphylococcus aureus GC6467 Clinical - tet(M) + (K); assay: Agar dilution in vitro activity; conditions: S. aureus GC6467 tet(M) + (K)
Procedure: as §1

[12] = test system: Enterococcus faecalis GC2242 Vancomycin-Resistant; assay: Agar dilution in vitro activity; conditions: E. faecalis GC2242 Vancomycin-Resistant
Procedure: as §1

[13] = test system: Staphylococcus aureus GC2216 ATCC Control; assay: Agar dilution in vitro activity; conditions: S. aureus GC2216 ATCC Control
Procedure: as §1

[14] = test system: Escherichia coli GC2270 tet(M); assay: Agar dilution in vitro activity; conditions: E. coli GC2270 tet(M)
Procedure: as §1

[15] = Table 8, Mueller Hinton Broth + Oxyrase, n = 240
[16] = Table 8, Mueller Hinton Broth, n = 210

`CN(C)c1cc(NC(=O)CNC(C)(C)C)c(O)c2c1C[C@H]1C[C@H]3[C@H](N(C)C)C(O)=C(C(N)=O)C(=O)[C@@]3(O)C(O)=C1C2=O` [Tigecycline, tigecycline] was tested, and the “Number of Occurrences of MIC 0.008 ug/ml” value [1, 15] was 2, the “Number of Occurrences of MIC 0.016 ug/ml” value [1, 15] was 1 and the “Number of Occurrences of MIC 0.06 ug/ml” value [1, 15] was 4. The “Number of Occurrences of MIC 0.12 ug/ml” value [1, 15] was 156, the “Number of Occurrences of MIC 0.25 ug/ml” value [1, 15] was 75 and the “Number of Occurrences of MIC 0.5 ug/ml” value [1, 15] was 2. For the same compound, the “Number of Occurrences of MIC 0.12 ug/ml” value [1, 16] was 13, the “Number of Occurrences of MIC 0.25 ug/ml” value [1, 16] was 156 and the “Number of Occurrences of MIC 0.5 ug/ml” value [1, 16] was 25. For the same compound, the “Number of Occurrences of MIC 1 ug/ml” value [1, 16] was 10, the “Number of Occurrences of MIC 2 ug/ml” value [1, 16] was 6 and the “In Vitro Activity of Tigecycline” value ([2]; Oxyrase (10%)) was 0.12. For the same compound, the “In Vitro Activity of Tigecycline” value ([2]; no Oxyrase) was 0.25, the “In Vitro Activity of Tigecycline” value ([3]; Oxyrase (10%)) was over 16 and the “In Vitro Activity of Tigecycline” value ([3]; no Oxyrase) was over 16. The “In Vitro Activity of Tigecycline” value ([4]; Oxyrase (10%)) was 0.12, the “In Vitro Activity of Tigecycline” value ([4]; no Oxyrase) was 0.12 and the “In Vitro Activity of Tigecycline” value ([5]; Oxyrase (10%)) was 0.25. For the same compound, the “In Vitro Activity of Tigecycline” value ([5]; no Oxyrase) was 0.25, the “In Vitro Activity of Tigecycline” value ([6]; Oxyrase (10%)) was 0.12 and the “In Vitro Activity of Tigecycline” value ([6]; no Oxyrase) was 0.25. The “In Vitro Activity of Tigecycline” value ([7]; Oxyrase (10%)) was 0.25, the “In Vitro Activity of Tigecycline” value ([7]; no Oxyrase) was 0.25 and the “In Vitro Activity of Tigecycline” value ([8]; Oxyrase (10%)) was 0.12. The “In Vitro Activity of Tigecycline” value ([8]; no Oxyrase) was 0.25, the “In Vitro Activity of Tigecycline” value ([9]; Oxyrase (10%)) was 0.03 and the “In Vitro Activity of Tigecycline” value ([9]; no Oxyrase) was 0.03. For the same compound, the “In Vitro Activity of Tigecycline” value ([10]; Oxyrase (10%)) was 0.12, the “In Vitro Activity of Tigecycline” value ([10]; no Oxyrase) was 0.25 and the “In Vitro Activity of Tigecycline” value ([11]; Oxyrase (10%)) was 0.5. For the same compound, the “In Vitro Activity of Tigecycline” value ([11]; no Oxyrase) was 1, the “In Vitro Activity of Tigecycline” value ([12]; Oxyrase (10%)) was 0.12 and the “In Vitro Activity of Tigecycline” value ([12]; no Oxyrase) was 0.12. For the same compound, the “In Vitro Activity of Tigecycline” value ([13]; Oxyrase (10%)) was 0.25, the “In Vitro Activity of Tigecycline” value ([13]; no Oxyrase) was 0.5 and the “In Vitro Activity of Tigecycline” value ([14]; Oxyrase (10%)) was 0.12. The “In Vitro Activity of Tigecycline” value ([14]; no Oxyrase) was 0.25.
